Read-outs that look alike come from different tables or passages of the source.
Experiments:
Format in all cases: biochemical
[1] = molecular target: Cathepsin B (Rattus norvegicus, UniProt P00787); test: In vitro assay of inhibition of Cathepsin B (N-CBZ-Phe-Arg-AMC substrate)
Method: After 10 min of incubation at room temperature a 20 μl of 5 mM substrate (N-CBZ-Phe-Arg-AMC, dissolved in DMSO) was added to initiate reaction. Reading is followed up for 10 min at the Fluoroscan reader (excitation at 380 nm, emission at 460 nm).

[2] = molecular target: Cathepsin L (Rattus norvegicus, UniProt P07154); test: Assay of inhibition of Cathepsin L (N-CBZ-Phe-Arg-AMC substrate); details: r rat CathL, pH5.0, 10 min preincubation at room temperature; read-out: IC50, Cathepsin L
Method: After 10 min of incubation at room temperature a 20 μl of 1 mM substrate (N-CBZ-Phe-Arg-AMC, dissolved in DMSO) was added to initiate reaction. Reading is followed up for 10 min at the Fluoroscan reader (excitation at 380 nm, emission at 460 nm).

[3] = molecular target: T1, papain (Carica papaya, UniProt P00784); test: Assay of inhibition of papain (N-CBZ-Pro-Phe-Arg-pNA substrate)
T1 sequence (P00784 134-345): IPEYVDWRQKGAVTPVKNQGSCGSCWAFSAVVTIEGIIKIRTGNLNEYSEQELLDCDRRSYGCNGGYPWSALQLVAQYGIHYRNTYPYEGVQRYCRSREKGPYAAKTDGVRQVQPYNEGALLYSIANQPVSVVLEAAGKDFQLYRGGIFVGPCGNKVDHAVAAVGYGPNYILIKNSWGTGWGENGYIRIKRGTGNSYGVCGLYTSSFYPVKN
Method: To a 170 μl of enzyme-buffer mixture (enzyme:papain, diluted to give 30 mOD/min, buffer: 0.2M potassium phosphate, 1.0 mM EDTA, 5 mML Cysteine, pH6.5) a 10 μl of inhibitor (dissolved in DMSO) was added. After 10 min of incubation at room temperature, 20 μl of 10 mM substrate (N-CBZ-Pro-Phe-Arg-pNA, dissolved in DMSO) was added to initiate reaction. Reading is followed up for 3 min at the Thermomax plate reader(absorbance at 405 nm).
A plot of percentage of inhibition vs inhibitor concentration is obtained, and IC50 is determined using a linear regression calculations (concentration of inhibitor which will give 50% inhibition).

[4] = r rat CathB, pH5.1, 10 min preincubation at room temperature, read-out: IC50, Cathepsin B
[5] = pH6.5, 10 min preincubation at room temperature, read-out: IC50, Papain

Sequence of Cathepsin L (P07154 114-334): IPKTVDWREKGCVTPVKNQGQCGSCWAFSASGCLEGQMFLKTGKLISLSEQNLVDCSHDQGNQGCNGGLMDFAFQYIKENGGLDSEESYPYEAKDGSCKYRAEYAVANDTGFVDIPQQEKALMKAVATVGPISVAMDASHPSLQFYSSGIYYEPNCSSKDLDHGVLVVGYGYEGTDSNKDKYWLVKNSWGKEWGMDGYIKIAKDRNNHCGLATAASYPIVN
Sequence of Cathepsin B (P00787 80-339): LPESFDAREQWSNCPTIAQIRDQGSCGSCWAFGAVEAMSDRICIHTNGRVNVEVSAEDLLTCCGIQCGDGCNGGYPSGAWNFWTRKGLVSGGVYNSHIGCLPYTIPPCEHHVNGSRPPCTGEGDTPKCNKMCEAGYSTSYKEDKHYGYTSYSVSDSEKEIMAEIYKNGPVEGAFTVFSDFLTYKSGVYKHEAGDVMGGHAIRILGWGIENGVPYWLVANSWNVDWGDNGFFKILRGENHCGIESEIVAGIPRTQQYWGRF

Row | Structure (SMILES) | IC50 [1, 4] [nM] | IC50 [2] [nM] | IC50 [3] [nM] | IC50 [1] [nM] | IC50 [3, 5] [nM]
1 | N[C@@H](Cc1ccc(O[C@@H]2NC(=O)[C@H]2NC(=O)[C@H](Cc2ccccc2)NC(=O)CCc2ccccc2)cc1)C(=O)O [Example 29B, (3S,4S)-3-{N-(3-phenylpropionoyl)-L-phenylalanyl}-amino-4-{4-(L-2-amino-2-carboxy-ethyl)-phenoxy}-azetidin-2-one] | > 46000 | 292 | 368 |  | 
2 | CC(=O)N[C@@H](CC(C)C)C(=O)N[C@@H](CC(C)C)C(=O)N[C@H](C=O)CCCNC(=N)N [Leupeptin, reference compound] |  | 8 |  | 13 | 12
3 | CC(C)C[C@H](NC(=O)[C@H]1O[C@@H]1C(=O)O)C(=O)NCCCCN=C(N)N [Example E-64, reference compound] | 5 | 15 |  |  | 2.5
